Assays:
pERK in DLD1 cells = test: ERK phosphorylation assay after EGF stimulation; assay type: cell-based; conditions: Homo sapiens, DLD-1, compound 2 h, 200 ng/ml hEGF 5 minutes, alphascreen pERK, read-out: ERK phosphorylation inhibition IC50
Procedure, shortened: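 DLD1 cells pretreated 2 h with compound, then stimulated 5 minutes with 200 ng/ml hEGF. Lysates assayed for ERK1/2 p-T202/Y204 by AlphaScreen SureFire, read after 2 h at 25-28° C.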

hSOS1 and hKRASG12C = target: T1, hSOS1 and hKRASG12C (Homo sapiens, UniProt Q07889); test: biochemical
T1 sequence (Q07889 564-1049): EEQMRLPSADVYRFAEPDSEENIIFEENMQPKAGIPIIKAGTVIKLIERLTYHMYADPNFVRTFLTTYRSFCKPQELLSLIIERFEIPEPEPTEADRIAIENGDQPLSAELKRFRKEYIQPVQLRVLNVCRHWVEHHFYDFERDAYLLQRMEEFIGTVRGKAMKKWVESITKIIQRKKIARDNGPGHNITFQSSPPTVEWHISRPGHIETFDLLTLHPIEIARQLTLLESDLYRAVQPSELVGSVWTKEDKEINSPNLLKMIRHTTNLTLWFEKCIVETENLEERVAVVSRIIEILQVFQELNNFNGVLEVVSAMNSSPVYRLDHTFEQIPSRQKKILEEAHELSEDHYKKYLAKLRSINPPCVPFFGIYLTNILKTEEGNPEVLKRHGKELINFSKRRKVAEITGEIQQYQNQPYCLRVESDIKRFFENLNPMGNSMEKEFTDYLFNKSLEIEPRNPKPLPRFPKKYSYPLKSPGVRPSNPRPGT
Protocol: Interaction assay was conducted to evaluate the ability of the compounds to disrupt the protein-protein interactions between hSOS1 and hKRASG12C. Inhibitory effect of compounds on GST-hSOS1, 564-1049aa expressed and purified in-house and HIS-hKRASG12C (R06-32DH, SignalChem) interaction was assessed using HTRF detection technology in biochemical assay. Compounds were pre-incubated with 10-50 nM working solution of hSOS1 per well of a 384 well plate (Perkin Elmer, Cat #6007290) for 10 min at 20° C. in the assay buffer containing 5 mM HEPES, pH 7.4, 150 mM NaCl, 10 mM EDTA, 1 mM DTT, 0.05% BSA fraction V and 0.0025% Igepal. Reaction was initiated by adding 100-300 nM working solution of hKRASG12C in assay buffer. Total assay volume was 15 μL. Reaction was continued for 30-60 min at 20° C. Then detection solution containing MAb Anti-GST-d2 (#61GSTDLA, Cisbio BioAssays) and MAb Anti-HIS-Tb (#61HISTLA, Cisbio BioAssays), all prepared in HTRF detection buffer (#61DB10RDF, Cisbio BioAssays) was added and further incubated for 30-60 min at 20° C. HTRF signal was recorded in PHERAStar microplate reader. Ratio of signal obtained at 665 nm and 620 nm was used to compute the percent inhibition of compound utilizing the following formula:
Positive control=hSOS1+hKRASG12C+MAb Anti-GST-d2+Mab Anti-HIS-Tb Negative control=hKRASG12C+MAb Anti-GST-d2+MAb Anti-HIS-Tb

[1] = target: T2, hSOS1 mediated nucleotide exchange on hKRASG12C (Homo sapiens, UniProt Q07889); test: biochemical
T2 sequence (Q07889 564-1049): T1 sequence (Q07889 564-1049)

Row | SMILES | IC50 (pERK in DLD1 cells) [nM] | IC50 (hSOS1 and hKRASG12C) [nM] | IC50 [1] [nM]
1 | COC[C@H]1CN(c2cc3c(N[C@H](C)c4cccc(C(F)(F)C(C)(C)O)c4F)nc(C)nc3c3c2CCC3)CCO1 [Compound 62, 1,1-difluoro-1-(2-fluoro-3-((R)-1-((6-((R)-2-(methoxymethyl)morpholino)-2-methyl-8,9-dihydro-7H-cyclopenta[h]quinazolin-4-yl)amino)ethyl)phenyl)-2-methylpropan-2-ol] | 1 to 200 | 1 to 10 | 1 to 30
2 | Cc1nc(N[C@H](C)c2cccc(C(F)(F)C(C)(C)O)c2F)c2cc(N3CCC(CO)CC3)c3c(c2n1)CCC3 [Compound 64, (R)-1,1-difluoro-1-(2-fluoro-3-(1-((6-(4-(hydroxymethyl)piperidin-1-yl)-2-methyl-8,9-dihydro-7H-cyclopenta[h]quinazolin-4-yl)amino)ethyl)phenyl)-2-methylpropan-2-ol] | 1 to 200 | 1 to 10 | 1 to 30
3 | Cc1nc(N[C@H](C)c2cc(N)cc(C(F)(F)F)c2)c2cc(N3CC4(COC4)C3)c3c(c2n1)CC(C)(C)O3 [Compound 114, (R)—N-(1-(3-amino-5-(trifluoromethyl)phenyl)ethyl)-2,8,8-trimethyl-6-(2-oxa-6-azaspiro[3.3]heptan-6-yl)-8,9-dihydrofuro[2,3-h]quinazolin-4-amine] | 1 to 200 | 1 to 10 | 31 to 70
4 | Cc1nc(N[C@H](C)c2cccc(C(F)(F)[C@@H](C)O)c2F)c2cc(N3CC4(COC4)C3)c3c(c2n1)CCC3 (single isomer, unassigned) [Compound 73b] | 1 to 200 | 1 to 10 | 1 to 30
5 | COCC1(O)CCN(c2cc3c(N[C@H](C)c4cccc(C(F)(F)CO)c4F)nc(C)nc3c3c2CCC3)CC1 [Compound 68, (R)-1-(4-((1-(3-(1,1-difluoro-2-hydroxyethyl)-2-fluorophenyl)ethyl)amino)-2-methyl-8,9-dihydro-7H-cyclopenta[h]quinazolin-6-yl)-4-(methoxymethyl)piperidin-4-ol] | 1 to 200 | 1 to 10 | 1 to 30
6 | Cc1nc(N[C@H](C)c2cccc(C(F)(F)C(C)(C)O)c2F)c2cc(N3CCC(O)CC3)c3c(c2n1)CCC3 [Compound 65, (R)-1-(4-((1-(3-(1,1-difluoro-2-hydroxy-2-methylpropyl)-2-fluorophenyl)ethyl)amino)-2-methyl-8,9-dihydro-7H-cyclopenta[h]quinazolin-6-yl)piperidin-4-ol] | 1 to 200 | 1 to 10 | 1 to 30
7 | Cc1nc(N[C@H](C)c2cccc(C(F)(F)[C@@](C)(O)CO)c2F)c2cc(N3CCOCC3)c3c(c2n1)CCC3 (racemic) [Compound 82b, (S/R)-3,3-difluoro-3-(2-fluoro-3-((S/R)-1-((2-methyl-6-morpholino-8,9-dihydro-7H-cyclopenta[h]quinazolin-4-yl)amino)ethyl)phenyl)-2-methylpropane-1,2-diol] | 1 to 200 | 1 to 10 | 1 to 30
8 | Cc1nc(N[C@H](C)c2cccc(C(F)(F)C(C)(C)O)c2F)c2cc(N3CC4(COC4)C3)c3c(c2n1)CCC3 [Compound 10, (R)-1,1-difluoro-1-(2-fluoro-3-(1-((2-methyl-6-(2-oxa-6-azaspiro[3.3]heptan-6-yl)-8,9-dihydro-7H-cyclopenta[h]quinazolin-4-yl)amino)ethyl)phenyl)-2-methylpropan-2-ol] | 1 to 200 | 1 to 10 | 1 to 30
9 | COCC(F)(F)c1cccc([C@@H](C)Nc2nc(C)nc3c4c(c(N5CC6(COC6)C5)cc23)CCC4)c1F [Compound 24, (R)—N-(1-(3-(1,1-difluoro-2-methoxyethyl)-2-fluorophenyl)ethyl)-2-methyl-6-(2-oxa-6-azaspiro[3.3]heptan-6-yl)-8,9-dihydro-7H-cyclopenta[h]quinazolin-4-amine] | 1 to 200 | 1 to 10 | 31 to 70
10 | Cc1nc(N[C@H](C)c2cc(N)cc(C(F)(F)F)c2)c2cc(N3CC4(COC4)C3)c3c(c2n1)CCC3 [Compound 33, (R)—N-(1-(3-amino-5-(trifluoromethyl)phenyl)ethyl)-2-methyl-6-(2-oxa-6-azaspiro[3.3]heptan-6-yl)-8,9-dihydro-7H-cyclopenta[h]quinazolin-4-amine] | 1 to 200 | 1 to 10 | 1 to 30
11 | Cc1nc(N[C@H](C)c2cc(N)cc(C(F)(F)F)c2)c2cc(N3CCOCC3)c3c(c2n1)CC(C)(C)O3 [Compound 113, (R)—N-(1-(3-amino-5-(trifluoromethyl)phenyl)ethyl)-2,8,8-trimethyl-6-morpholino-8,9-dihydrofuro[2,3-h]quinazolin-4-amine] | 1 to 200 | 1 to 10 | 1 to 30
12 | Cc1nc(N[C@H](C)c2cc(N)cc(C(F)(F)F)c2)c2cc(N3CCOCC3)c3c(c2n1)CC(C)O3 (mixture of isomers) [Compound 117a, (R/S)—N—((R)-1-(3-amino-5-(trifluoromethyl)phenyl)ethyl)-2,8-dimethyl-6-morpholino-8,9-dihydrofuro[2,3-h]quinazolin-4-amine] | 1 to 200 | 1 to 10 | 31 to 70
13 | Cc1nc(N[C@H](C)c2cccc(C(F)(F)CO)c2F)c2cc(N3CC[C@H](O)C3)c3c(c2n1)CCC3 [Compound 22, (S)-1-(4-(((R)-1-(3-(1,1-difluoro-2-hydroxyethyl)-2-fluorophenyl)ethyl)amino)-2-methyl-8,9-dihydro-7H-cyclopenta[h]quinazolin-6-yl)pyrrolidin-3-ol] | 1 to 200 | 1 to 10 | 1 to 30
14 | Cc1nc(N[C@H](C)c2cc(N)cc(C(F)(F)F)c2)c2cc(N3CCC(O)CC3)c3c(c2n1)CCC3 [Compound 48, (R)-1-(4-((1-(3-amino-5-(trifluoromethyl)phenyl)ethyl)amino)-2-methyl-8,9-dihydro-7H-cyclopenta[h]quinazolin-6-yl)piperidin-4-ol] | 1 to 200 | 1 to 10 | 1 to 30
15 | Cc1nc(N[C@H](C)c2cc(N)cc(C(F)(F)F)c2)c2cc(N3CCC(CO)CC3)c3c(c2n1)CCC3 [Compound 49, (R)-(1-(4-((1-(3-amino-5-(trifluoromethyl)phenyl)ethyl)amino)-2-methyl-8,9-dihydro-7H-cyclopenta[h]quinazolin-6-yl)piperidin-4-yl)methanol] | 1 to 200 | 1 to 10 | 1 to 30
16 | COCC1(O)CCN(c2cc3c(N[C@H](C)c4cccc(C(F)(F)COC)c4F)nc(C)nc3c3c2CCC3)CC1 [Compound 69, (R)-1-(4-((1-(3-(1,1-difluoro-2-methoxyethyl)-2-fluorophenyl)ethyl)amino)-2-methyl-8,9-dihydro-7H-cyclopenta[h]quinazolin-6-yl)-4-(methoxymethyl) piperidin-4-ol] | 1 to 200 | 1 to 10 | 1 to 30
17 | Cc1nc(N[C@H](C)c2cc(N)cc(C(F)(F)F)c2)c2cc(N3CCOCC3=O)c3c(c2n1)CCC3 [Compound 83, (R)-4-(4-((1-(3-amino-5-(trifluoromethyl)phenyl)ethyl)amino)-2-methyl-8,9-dihydro-7H-cyclopenta[h]quinazolin-6-yl)morpholin-3-one] | 1 to 200 | 11 to 20 | 71 to 130
